Data on eleven compounds can be found in patent publication US12630564B2, “Internal cyclic sulphiamidine amide-aryl amide compound and use thereof for treating hepatitis B” (SHANGHAI LONGWOOD BIOPHARMACEUTICALS CO., LTD., priority 2019, dated 2026).

Bounds are passed on as bounds.

Holding throughout (assay type): cell-based
Data set [1] is described as follows: Determination of cytotoxicity, HepG2 cells, resazurin assay (Experiment 3). Conditions: human. As for the experimental part:
(§1) Experiment 3: Determination of Cytotoxicity
(§2) The cytotoxicity of the test compound was tested using HepG2 cells. The cells were incubated for 4 days in the presence of the test compound. Cell activity was assessed using the resazurin assay.
A general note: Resazurin is reduced to fluorescent resorufin, in cell work by metabolically active cells.

Data set [2] deals with HBV DNA in the supernatant of HepG2.2.15. Description: Determination of anti-HBV activity in HepG2.2.15 cell, HBV DNA in supernatant by qPCR (Experiment 2). As to conditions: Hepatitis B virus, HepG2.2.15, HepG2.2.15 cells. As to the method:
Experiment 2: Determination of Anti-HBV Activity in HepG2.2.15 Cell
• QIAamp 96 DNA Blood Kit (12) (Qiagen, Item No. 51162); • FastStart Universal Probe Master (Roche, Item No. 04914058001); • Cell-titer Glo Testing Reagent (Promega, Item No. G7573).
Compound dilution: all the compounds for in vitro anti-HBV activity assay and cytotoxicity assay were 3-fold diluted into 8 concentrations. The final starting concentration of the tested compound was 30 μM, the final starting concentration of reference compound GLS4 was 1 μM, and the final concentration of DMSO was 0.5%.
HepG2.2.15 cells (4×10^4 cells/well) was inoculated into 96-well plates and cultured overnight at 37° C., 5% CO2. On the second day, fresh culture medium containing different concentrations of compounds was added into the culture wells. On the fifth day, the old culture solution in the culture well was aspirated and fresh culture medium containing different concentrations of the compound was added.
On the eighth day, the supernatant in the culture well was collected for extraction of HBV DNA, and the content of HBV DNA in the supernatant of HepG2.2.15 was detected by qPCR. After the supernatant was collected, the medium and Cell-titer Glo reagent were added into the culture well, and the chemiluminescence value of each well was measured by microplate reader.
The activity calculation formula was as follows: Y=Bottom+(Top−Bottom)/(1+10^((Log IC50−X)*HillSlope)); • wherein, • X represents the logarithm of the concentration, Y represents the effect value, and Y starts from the bottom and fits to the top by S type fitting.
Bottom represents the bottom of the curve;
Top represents the top of the curve;
HillSlope represents the absolute value of the maximum slope of the curve.

Another data set relates to HepG2 cells. The data set is described as follows: Determination of cytotoxicity, HepG2 cells, resazurin assay (Experiment 3). As to conditions: 4 days. As to the method:
as §1, §2

The CC50 is the concentration that lowers cell viability or growth by half. Low values mean greater toxicity to the cells, high ones lower toxicity to the cells. `Cn1cc2c(c1C(=O)Nc1ccc(F)c(C#N)c1)CC[C@H](C1CC1)NS2(=N)=O` (single isomer, unassigned) [Compound 100a01] came in with a cytotoxic concentration (CC50) at 4 days in data set [1] above 30000 nM. The EC50 is the concentration needed to bring the measured effect to its halfway point. The low end stands for a more potent agent, the high end for a less potent agent. As for `Cn1cc2c(c1C(=O)Nc1ccc(F)c(C#N)c1)CC[C@H](Cc1ccc(F)cc1)NS2(=N)=O` (single isomer, unassigned) [Compound 100c02], the concentration giving a half-maximal response (EC50) in data set [2] lay in the range of 0.1 to 100 nM. In data set [1], this compound came in with a CC50 at 4 days above 30000 nM. The corresponding values for `COc1ccc(C[C@H]2C=Cc3c(cn(C)c3C(=O)Nc3ccc(F)c(C#N)c3)S(=N)(=O)N2)cc1` (single isomer, unassigned) [Compound 100c16] are 0.1 to 100 nM and above 30000 nM.

For `Cn1cc2c(c1C(=O)Nc1ccc(F)c(C#N)c1)CC[C@H](C1CC1)NS2(=N)=O` (single isomer, unassigned) [Compound 100a02], the CC50 in the data set with HepG2 cells is above 30000 nM.

Compound `Cn1cc2c(c1C(=O)Nc1ccc(F)c(C#N)c1)C=C[C@H](C1CC1)NS2(=N)=O` (single isomer, unassigned) [Compound 100a04] displayed an EC50 in data set [2] of 0.1 to 100 nM. The CC50 at 4 days in data set [1] is above 30000 nM. As for `CC(C)[C@@H]1C=Cc2c(cn(C)c2C(=O)Nc2ccc(F)c(C#N)c2)S(=N)(=O)N1` (single isomer, unassigned) [Compound 10h2], the CC50 in the data set with HepG2 cells was above 30000 nM. For `Cn1cc2c(c1C(=O)Nc1ccc(F)c(C#N)c1)C=C[C@H](Cc1ccc(F)cc1)NS2(=N)=O` (single isomer, unassigned) [Compound 100c04], the 50% effective concentration (EC50) in data set [2] is 0.1 to 100 nM. Moreover, in data set [1], the half-maximal cytotoxic concentration (CC50) at 4 days is above 30000 nM. For `COc1ccc(C[C@H]2CCc3c(cn(C)c3C(=O)Nc3ccc(F)c(C#N)c3)S(=N)(=O)N2)cc1` (single isomer, unassigned) [Compound 100c14], in data set [2], the concentration for a half-maximal effect (EC50) is 0.1 to 100 nM. Moreover, the CC50 at 4 days in data set [1] was above 30000 nM. Consider `Cn1cc2c(c1C(=O)Nc1ccc(F)c(C#N)c1)CC[C@H](CC1CC1)NS2(=N)=O` (single isomer, unassigned) [Compound 100b02], for which the concentration giving a half-maximal response (EC50) in data set [2] fell in the range of 0.1 to 100 nM. Further, the cytotoxic concentration (CC50) at 4 days in data set [1] was above 30000 nM. Consider `Cn1cc2c(c1C(=O)Nc1ccc(F)c(C#N)c1)C=C[C@H](CC1CC1)NS2(=N)=O` (single isomer, unassigned) [Compound 100b04], for which the concentration for a half-maximal effect (EC50) in data set [2] was in the range of 0.1 to 100 nM. The compound further registered a CC50 at 4 days in data set [1] above 30000 nM. Turning to `CC(C)[C@H]1C=Cc2c(cn(C)c2C(=O)Nc2ccc(F)c(C#N)c2)S(=N)(=O)N1` (single isomer, unassigned) [Compound 10b2], the CC50 in the data set with HepG2 cells was above 30000 nM.
